System: M2R melanoma cells
Assay: Photodynamic activity in monolayer cell culture (phototoxicity to melanoma cells)
Assay type: cell-based
Conditions: mouse M2R melanoma cells, 4 hrs dark incubation, irradiation 600–1300 nm; for phototoxicity to M2R melanoma cells (result in words): viability by [3H]-thymidine incorporation, formed aggregates in the liposomes
Experimental: Liposome Preparation L-α-Dipalmitoylphosphatidylcholine (DPPC) liposomes as carrier system for pigments insoluble in water were prepared according to Toledano, 1998 and to Cuomo et al. 1990. […] (≅130 μg) of the photosensitizer and 5 mg DPPC were dissolved in 400 μl chloroform. Onto this were layered 250 μl H2O and 250 μl phosphate buffer (pH=7,2; 1,5 mM KH2PO4; 7,6 mM Na2HPO4; 0,15 M NaCl). The chloroform was removed within 5 min with a rapid stream of argon, while the mixture was sonicated and maintained at 45° C. Sonication was continued for another 20 min and the liposomes loaded with pigment were recovered in the supernatant after centrifugation (16 000×g, 10 min). The liposome concentration was determined photometrically at 750 nm (according to Grossweiner and Grossweiner, 1982). Photodynamic Activity in Monolayer Cell Culture M2R melanoma cells (mice) were cultivated as monolayers in 96-well microtiter-plates in DMEM (Dulbecco's modified Eagle's medium)/F12 1/1 (v/v) at 37° C. in a moist atmosphere containing 8% CO2. The medium (pH 7.4) was supplemented with HEPES buffer (25 mM), fetal-bovine-serum (FBS) (10%), glutamine (2 mM), penicillin (0.06 mg/ml) and streptomycin (0.1 mg/ml). Within 24 hrs, the cell density increased from 1×10^4 to 2×10^4 cell/100 μl. Increasing amounts of the liposome preparation containing the BChl-derivative were added to the cells. (Pd-BPheid-ser or Pd-BPheid-Nglc were added as ethanolic solution (10^−4 M) such that the maximum concentration of ethanol was <1%). The cells were first kept in the dark for 4 hrs, washed with 100 μl of the medium, treated with 100 μl of fresh medium, and then irradiated from below through the bottom of the plates with a russian BS LS3-PDT lamp, fitted with a filter (600–1300 nm). A light-dose of 10 mW x s x cm^−2 was provided during an irradiation time of […]. After an additional 24 h in the dark at 37° C., cell viability was determined by microscopic inspection (cell size and shape) and via [^3H]-thymidine incorporation into the DNA (Chen et al. 1988). […]

Row | Substance | LD90 (phototoxicity) (viability by [3H]-thymidine incorporation after 24 h, sensitizers in DPPC liposomes (Pd-BPheid-ser as ethanolic solution)) | phototoxicity to M2R melanoma cells (result in words)
1 | 13^3-tert-butyl-benzyl-Pd-bacteriopheophorbide-a-17^3-methyl ester [tbb-Pd-Bpheid-me] | 1.1 µM | 
2 | 13^3-tert.-butyl-benzyl-Pd-bacteriopheophorbide-a-17^3-tert-butyl-benzyl ester [tbb-Pd-BPheid-tbb] |  | ineffective
3 | Pd-bacteriopheophorbide a-17^3-N-glucosamide [Pd-BPheid-Nglc] |  | ineffective

— patent US7169753B2, “Chlorophyll and bacteriochlorophyll esters, their preparation and pharmaceutical compositions comprising them” (Yeda Research and Development Co. Ltd., priority 1999, dated 2007)
